Measured values published in PMC10584170, “Machine learning-based phenotypic imaging to characterise the targetable biology of Plasmodium falciparum male gametocytes for the development of transmission-blocking antimalarials” (PLOS Pathogens, 2023).
Where two headings read alike, the source gives them in different places.

Columns and labels:
[1] = test system: P. falciparum male gametocytes; test: P. falciparum Dual Gamete Formation Assay (PfDGFA), male readout (exflagellation); type: cell-based, Plasmodium falciparum NF54; details: for inhibition at 2 µM: 24h preincubation with gametocytes; for Activity: hit = >50% inhibition in male or female readout in at least 3 replicates, 0 = no class assigned
Summary of the method: (§1)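 Day-14 NF54 gametocytes were incubated with compound for 24 h at 37°C under 1% O2/3% CO2/96% N2. Gametogenesis was triggered with ookinete medium (0.1 μM xanthurenic acid) plus Cy3-anti-Pfs25, and exflagellation was imaged by brightfield after cooling to 4°C then 28°C. Females were imaged by Pfs25 fluorescence 24 h later at 28°C.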

[2] = test system: P. falciparum female gametocytes; test: P. falciparum Dual Gamete Formation Assay (PfDGFA), female readout (Pfs25-positive female gametes); type: cell-based, Plasmodium falciparum NF54; details: for inhibition at 2 µM: 24h preincubation with gametocytes
Summary of the method: as §1

[3] = 2µM, 24h preincubation with gametocytes prior to induction of gametogenesis, average of replicates
[4] = 2µM, 24h preincubation with gametocytes prior to induction of gametogenesis, replicate R1
[5] = 2µM, 24h preincubation with gametocytes prior to induction of gametogenesis, replicate R3
[6] = 2µM, 24h preincubation with gametocytes prior to induction of gametogenesis, replicate R4
[7] = 2µM, 24h preincubation, hits selected on >50% inhibition in the male readout across replicates
[8] = PfDGFA at 2µM, 24h preincubation
[9] = 2µM, 24h preincubation, hits selected on >50% inhibition in the female readout across replicates
[10] = 2µM, 24h preincubation, number of replicates with >50% inhibition in the male readout
[11] = 2µM, 24h preincubation, number of replicates with >50% inhibition in the female readout
[12] = PfDGFA at 2µM, 24h preincubation with gametocytes prior to induction of gametogenesis, replicate R1
[13] = PfDGFA at 2µM, 24h preincubation with gametocytes prior to induction of gametogenesis, replicate R3
[14] = PfDGFA at 2µM, 24h preincubation with gametocytes prior to induction of gametogenesis, replicate R4
[15] = PfDGFA at 2µM, 24h preincubation, average of replicates

Structure (SMILES)	Average inhibition male (%) [1, 3]	% inhibition male (individual replicates) R1 [1, 4]	% inhibition male (individual replicates) R3 [1, 5]	% inhibition male (individual replicates) R4 [1, 6]	HitlevelM [1, 7]	Activity [1, 8]	Average inhibition female (%) [2, 3]	% inhibition female (individual replicates) R1 [2, 4]	% inhibition female (individual replicates) R3 [2, 5]	% inhibition female (individual replicates) R4 [2, 6]	HitlevelF [2, 9]	also measured
CC(C)(CN)c1nc(-c2ccc(Br)c(O)c2)c(-c2ccncc2)[nH]1.Cl [TCMDC-140680]												Selectivity Ratio M ([1]; HepG2 Tox50 versus male IC50): 67.46; inhibition at 2 µM ([1]; Plasmodium falciparum, PfDGFA at 2µM, average of replicates, read-out: Average inhibition male (%)): 80.7%; inhibition at 2 µM ([1]; Plasmodium falciparum, PfDGFA at 2µM, replicate R1, read-out: % inhibition male (individual replicates) R1): 55.5%; inhibition at 2 µM ([1]; Plasmodium falciparum, PfDGFA at 2µM, replicate R2, read-out: % inhibition male (individual replicates) R2): 95.4%; inhibition at 2 µM ([1]; Plasmodium falciparum, PfDGFA at 2µM, replicate R3, read-out: % inhibition male (individual replicates) R3): 94%; inhibition at 2 µM ([1]; Plasmodium falciparum, PfDGFA at 2µM, replicate R4, read-out: % inhibition male (individual replicates) R4): 77.9%; IC50 ([1]; Plasmodium falciparum, PfDGFA, 24 h incubation with gametocytes before induction, exflagellation readout, read-out: Male IC50): 1480 nM; HitlevelM ([1]; number of replicates with >50% inhibition in the male readout, 2µM): 4; Selectivity ratio F ([2]; HepG2 Tox50 versus female IC50): 175.05; inhibition at 2 µM ([2]; Plasmodium falciparum, PfDGFA at 2µM, average of replicates, read-out: Average inhibition female (%)): 96%; inhibition at 2 µM ([2]; Plasmodium falciparum, PfDGFA at 2µM, replicate R1, read-out: % inhibition female (individual replicates) R1): 91.3%; inhibition at 2 µM ([2]; Plasmodium falciparum, PfDGFA at 2µM, replicate R2, read-out: % inhibition female (individual replicates) R2): 95.4%; inhibition at 2 µM ([2]; Plasmodium falciparum, PfDGFA at 2µM, replicate R3, read-out: % inhibition female (individual replicates) R3): 104%; inhibition at 2 µM ([2]; Plasmodium falciparum, PfDGFA at 2µM, replicate R4, read-out: % inhibition female (individual replicates) R4): 93%; IC50 ([2]; Plasmodium falciparum, PfDGFA, 24 h incubation with gametocytes before induction, female gamete readout, read-out: Female IC50): 570 nM; HitlevelF ([2]; number of replicates with >50% inhibition in the female readout, 2µM): 4
CN1CCC(N2CCN(CCOc3cc(NC(=O)/C=C/c4ccccc4Cl)ccc3Br)CC2)CC1.O=C(O)C(=O)O [TCMDC-140962]	15.3%	25.8%	-8.5%	17.6%	0	0	8.6%	14.8%	-6.3%	11.7%	0	
COc1cc2c(cc1OCCN1CCC(N)CC1)N(C(=O)/C=C/c1ccccc1Cl)CC2.Cl [TCMDC-140969]	28.3%	26.3%	11.1%	42.2%	0	0	11.8%	7.5%	2.9%	33.3%	0	
CC1(CCN2CCC(c3c[nH]c4cnccc34)CC2)CCCc2c(Br)cccc2C1=O.Cl (stereo not drawn) [TCMDC-141171]	55.1%	49.5%		49.8%	1	0	14.9%	12.8%	15.8%	19.7%	0	
CC1(CCCCN2CCC(c3c[nH]c4cnccc34)CC2)C(=O)Nc2cccc(Cl)c21 (stereo not drawn) [TCMDC-141177]	42.5%	42.7%	28.4%	48.2%			23.5%	22.1%	12.9%	47.7%		HitlevelM [1, 10]: 1; HitlevelF [2, 11]: 0
O=C(O)C(F)(F)F.O=[N+]([O-])c1cccc(CNCC2CCN(Cc3ccc(-c4ccccc4)cc3)CC2)c1 [TCMDC-141208]	36.0%	32.1%	8.2%	53.6%	2	0	6.3%	-1.5%	6.7%	13.0%	0	
Cc1cc(F)ccc1-c1nc(Nc2ccncc2)c2ccn(C)c2n1 [TCMDC-141231]												% inhibition male (individual replicates) R1 [1, 12]: -14.5%; % inhibition male (individual replicates) R3 [1, 13]: -17.7%; % inhibition male (individual replicates) R4 [1, 14]: 32.9%; Average inhibition male (%) [1, 15]: -2.0%; % inhibition female (individual replicates) R1 [2, 12]: 10.5%; % inhibition female (individual replicates) R3 [2, 13]: -5.5%; % inhibition female (individual replicates) R4 [2, 14]: -9.9%; Average inhibition female (%) [2, 15]: -2.8%
CCCC(C)NC(=O)[C@H]1CNCCN1C(=O)CCCc1ccccc1.O=C(O)C(F)(F)F (stereo partly drawn) [TCMDC-141270]												% inhibition male (individual replicates) R1 [1, 12]: -7.3%; % inhibition male (individual replicates) R3 [1, 13]: -0.8%; % inhibition male (individual replicates) R4 [1, 14]: 2.9%; Average inhibition male (%) [1, 15]: -3.3%; % inhibition female (individual replicates) R1 [2, 12]: 8.3%; % inhibition female (individual replicates) R3 [2, 13]: -18.4%; % inhibition female (individual replicates) R4 [2, 14]: -2.2%; Average inhibition female (%) [2, 15]: 0.7%
ON=C1CCc2cc(-c3cc(-c4ccc(OC5CCNCC5)cc4)oc3-c3ccncc3)ccc21 [TCMDC-141381]												% inhibition male (individual replicates) R1 [1, 12]: 12.4%; % inhibition male (individual replicates) R3 [1, 13]: 2.8%; % inhibition male (individual replicates) R4 [1, 14]: 13.5%; Average inhibition male (%) [1, 15]: 7.3%; % inhibition female (individual replicates) R1 [2, 12]: 10.4%; % inhibition female (individual replicates) R3 [2, 13]: -25.1%; % inhibition female (individual replicates) R4 [2, 14]: 18.2%; Average inhibition female (%) [2, 15]: 2.6%
CN(C)CCN(Cc1ccc(-c2ccc(CNCCc3ccccc3)cc2)nc1)C(=O)CCC1CCCC1.O=C(O)C(F)(F)F [TCMDC-141402]	46.5%	41.7%	6.4%	71.6%	2	0	13.9%	22.3%	7.4%	7.2%	0	
O=C(C1CC1c1ccccc1)N(Cc1ccc(-c2ccc(CNCCc3ccccc3)cc2)cc1)C1CCNCC1.O=C(O)C(F)(F)F (stereo not drawn) [TCMDC-141443]	40.0%	61.6%	28.4%	57.9%			24.9%	19.9%	29.6%	18.3%		HitlevelM [1, 10]: 2; HitlevelF [2, 11]: 0
